Source: patent US20150293106A1, “DIAROMATIC AMINO ACID SUBSTRATE FOR CATHEPSIN DETECTION” (INDUSTRY-ACADEMIC COOPERATION FOUNDATION, YONSEI UNIVERSITY, priority 2012, published 2015)
Entries after “also recorded” stand apart in the source; their conditions may differ. Marks after values point to notes of the source that are not given here.

Experiments:
[1] = test system: cysteine protease (papain, chymopapain, bromelain); assay: Protease-catalyzed hydrolysis, restored DBDY fluorescence (selectivity, FIGS. 11-19); assay type: biochemical, papaya latex; pineapple stem; settings: substrate 2.5 μM, protease 0.1 μM, two hours
Experimental: (§1) The reaction was performed under alkaline conditions.
(§2) The hydrolysis reaction was performed for two hours. […] Each experiment was repeated at least three times.

[2] = test system: other proteases (non-cysteine proteases of the 13-protease panel); assay: as above; assay type: biochemical; settings: substrate 2.5 μM, protease 0.1 μM, two hours
Experimental: as §1, §2

chymotrypsin = target: T1, chymotrypsin (Bos taurus, UniProt P00766); assay: Degree of hydrolysis by protease (Table 3); assay type: biochemical, bovine; settings: after 2 hours, protease 10 μM, substrate 0.2 mM (G1-G3, L1-L3) or 0.1 mM (G4, L4), n.d. = no hydrolysis was detected, hydrolysate Gly-INH (G), Lys-INH (L1-L3)
T1 construct: chymotrypsin and trypsin derived from fetal bovine pancreas; purchased Sigma-Aldrich Chemical Co; host or cells: bovine pancreas
Experimental: (§3) A hydrolysate was measured using a HPLC system.

papain [3] = target: T2, papain (Carica papaya, UniProt P00784); assay: Degree of hydrolysis by protease (Table 3); assay type: biochemical, papaya latex; settings: after 2 hours; protease 10 μM; substrate 0.2 mM (G1-G3, L1-L3) or 0.1 mM (G4, L4); hydrolysate INH
T2 construct: papain and chymopapain derived from papaya latex; purchased Sigma-Aldrich Chemical Co; host or cells: papaya latex
T2 sequence (P00784 134-345): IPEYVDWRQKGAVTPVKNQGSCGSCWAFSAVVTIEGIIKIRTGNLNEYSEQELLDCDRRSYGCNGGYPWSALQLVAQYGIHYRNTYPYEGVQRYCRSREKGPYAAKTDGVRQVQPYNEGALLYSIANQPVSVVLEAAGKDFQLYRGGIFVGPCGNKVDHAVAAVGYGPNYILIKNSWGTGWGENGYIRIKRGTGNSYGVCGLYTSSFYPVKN
Experimental: as §3

pepsin = target: T3, pepsin (Sus scrofa, UniProt P00791); assay: Degree of hydrolysis by protease (Table 3); assay type: biochemical, pig; settings: after 2 hours; protease 10 μM; substrate 0.2 mM (G1-G3, L1-L3) or 0.1 mM (G4, L4); n.d. = no hydrolysis was detected; hydrolysate INH
T3 construct: pepsin derived from pig gastric mucosa; purchased Sigma-Aldrich Chemical Co; host or cells: pig gastric mucosa
T3 sequence (P00791 60-385): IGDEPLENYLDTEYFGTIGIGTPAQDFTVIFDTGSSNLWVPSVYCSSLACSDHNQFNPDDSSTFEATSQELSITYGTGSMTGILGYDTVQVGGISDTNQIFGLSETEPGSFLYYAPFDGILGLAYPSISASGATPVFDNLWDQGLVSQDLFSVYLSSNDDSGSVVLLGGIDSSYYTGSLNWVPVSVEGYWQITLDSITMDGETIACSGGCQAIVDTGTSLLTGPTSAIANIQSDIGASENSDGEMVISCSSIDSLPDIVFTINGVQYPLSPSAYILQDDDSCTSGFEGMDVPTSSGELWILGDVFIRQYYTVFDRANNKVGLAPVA
Experimental: as §3

thermolysin = thermolysin (Bacillus thermoproteolyticus, UniProt P00800); settings: after 2 hours; protease 10 μM; substrate 0.2 mM (G1-G3, L1-L3) or 0.1 mM (G4, L4); n.d. = no hydrolysis was detected; hydrolysate INH
thermolysin, sequence (P00800 233-548): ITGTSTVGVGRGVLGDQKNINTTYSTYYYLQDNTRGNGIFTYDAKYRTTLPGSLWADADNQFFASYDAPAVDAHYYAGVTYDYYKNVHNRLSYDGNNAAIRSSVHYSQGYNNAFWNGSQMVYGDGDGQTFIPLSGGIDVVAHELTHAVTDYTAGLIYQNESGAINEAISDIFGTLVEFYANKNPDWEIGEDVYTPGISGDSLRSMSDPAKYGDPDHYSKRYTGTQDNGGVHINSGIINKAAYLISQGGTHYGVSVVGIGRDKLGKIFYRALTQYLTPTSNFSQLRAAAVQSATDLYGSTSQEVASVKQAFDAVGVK
Experimental: For the meaningful comparison of proteases, a hydrolysis reaction was performed under the optimum conditions as reported in other documents (regarding chymotrypsin, subtilisin, thermolysin and pepsin, refer to R. Beynon, J. S. Bond, Proteolytic Enzymes (Second Edition), Oxford University Press, 2001, pp. 295-316; regarding trypsin, proteinase K, carboxy peptidase A, collagenase, dispase, aspergillopepsin, papain, chymopapain, bromelain, cathepsin B, cathepsin L, and cathepsin S, refer to the catalog of Sigma-Aldrich Corporation).
Before the reaction, the mixtures of the reaction buffer solutions and proteases were previously incubated for 30 minutes in a water bath in which the temperature was adjusted to an analysis temperature. The hydrolysis reaction was initiated by adding a substrate dissolved in DMSO. The volume of the added substrate solution was controlled such that the final concentration of DMSO was lower than 1.5% (v/v).
A hydrolysate was measured using a HPLC system. In order to prepare a sample, a hydrolysis reaction was terminated by adding 2% (v/v) 1M HCl with respect to a serine protease, cysteine protease and metalloprotease, and adding 1M NaOH with respect to an aspartic protease. The separation was performed using the mixture of 10 mM-ammonium bicarbonate and acetonitrile as an eluent in C-18 column (particle size: 5 μm, 250 mm×4.6 mm, pore size: 80 Å, Phenomenex, USA). The elution was performed for 15 minutes, while the linear gradient of acetonitrile was increased from 0 to 60%. The flow rate and separation temperature of the eluent were maintained at 1 mL min^−1 and 35° C. The hydrolysate was detected at a wavelength of 254 nm.
Based on the report that a hydrophobic amino acid such as phenylalanine was preferred at a P2 position in most of the papain-like cysteine proteases, Boc-aromatic amino acid-Gly-INH and Boc-aromatic amino acid-Lys-INH were prepared in particular, and experimented as a substrate with respect to chymotrypsin, trypsin, papain, pepsin and thermolysis.

cathepsin L [4] = target: T4, cathepsin L (Homo sapiens, UniProt P07711); assay: Selective hydrolysis by cathepsins, fluorescence (FIG. 20); assay type: biochemical; settings: substrate 1.0 μM, protease 10 mM, 30 minutes
T4 construct: cathepsins B and L derived from a human liver; purchased Sigma-Aldrich Chemical Co; host or cells: human liver
T4 sequence (P07711 114-333): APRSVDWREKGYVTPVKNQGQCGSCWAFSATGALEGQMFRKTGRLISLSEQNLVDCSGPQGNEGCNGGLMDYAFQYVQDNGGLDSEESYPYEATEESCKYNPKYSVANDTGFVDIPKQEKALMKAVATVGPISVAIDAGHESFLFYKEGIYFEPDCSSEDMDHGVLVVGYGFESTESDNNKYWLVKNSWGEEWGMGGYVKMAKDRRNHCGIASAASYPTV
Experimental: as §1
(§4) The results of experiments were illustrated in FIG. 20. Since the hydrolysis by cathepsin B was faster than the hydrolyses by papain and chymopapain, the reaction was performed with a substrate (concentration: 1.0 μM) and a protease (concentration: […]) of which the concentrations were set lower than those in Experimental Example 2 (substrate (concentration: 2.5 μM) and protease (concentration: 0.1 μM) reacted for two hours) for 30 minutes in FIG. 20. C1, C2, CB, CL, and CS represented on an X-axis respectively denote papain, chymopapain, cathepsin B, cathepsin L, and cathepsin S. Each experiment was repeated at least three times.

cathepsin S = target: T5, cathepsin S (Homo sapiens, UniProt P25774); assay: as above; assay type: biochemical; settings: substrate 1.0 μM, protease 10 mM, 30 minutes
T5 construct: cathepsin S derived from a human spleen; purchased Sigma-Aldrich Chemical Co; host or cells: human spleen
T5 sequence (P25774 115-331): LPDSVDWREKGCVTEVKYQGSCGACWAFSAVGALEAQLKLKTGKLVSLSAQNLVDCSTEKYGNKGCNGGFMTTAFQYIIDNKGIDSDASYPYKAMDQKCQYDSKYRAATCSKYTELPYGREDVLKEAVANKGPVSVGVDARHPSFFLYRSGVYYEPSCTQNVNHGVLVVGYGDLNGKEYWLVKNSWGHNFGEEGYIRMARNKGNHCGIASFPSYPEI
Experimental: as §1, §4

chymopapain = target: T6, chymopapain (Carica papaya, UniProt P14080); assay: Michaelis-Menten kinetics of hydrolysis by cysteine protease (Table 4); assay type: biochemical, papaya latex; settings: average and standard deviation, at least 3 experiments
T6 construct: papain and chymopapain derived from papaya latex; purchased Sigma-Aldrich Chemical Co; host or cells: papaya latex
T6 sequence (P14080 135-352): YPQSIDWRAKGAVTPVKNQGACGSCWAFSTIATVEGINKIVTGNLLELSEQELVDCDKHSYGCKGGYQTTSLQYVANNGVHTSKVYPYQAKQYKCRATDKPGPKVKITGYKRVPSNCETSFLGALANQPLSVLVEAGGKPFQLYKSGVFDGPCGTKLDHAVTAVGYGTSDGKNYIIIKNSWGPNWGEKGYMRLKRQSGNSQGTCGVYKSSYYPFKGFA
Experimental: as §1

papain [5] = target: T2, papain; assay: as above; assay type: biochemical, papaya latex; settings: average and standard deviation, at least 3 experiments
Experimental: as §1

cathepsin L [6] = target: T4, cathepsin L; assay: as above; assay type: biochemical; settings: average and standard deviation, at least 3 experiments
Experimental: as §1

cathepsin B [7] = target: T7, cathepsin B (Homo sapiens, UniProt P07858); assay: Selective hydrolysis by cathepsins, fluorescence (FIG. 20); assay type: biochemical; parameters: cathepsins B and L derived from a human liver; purchased Sigma-Aldrich Chemical Co; host or cells: human liver; settings: substrate 1.0 μM, protease 10 mM, 30 minutes
Experimental: as §1, §4

cathepsin B [8] = target: T7, cathepsin B; assay: Michaelis-Menten kinetics of hydrolysis by cysteine protease (Table 4); assay type: biochemical; parameters: cathepsins B and L derived from a human liver; purchased Sigma-Aldrich Chemical Co; host or cells: human liver; settings: average and standard deviation, at least 3 experiments
Experimental: as §1

trypsin [9] = target: T8, trypsin (Bos taurus, UniProt P00760); assay: Protease-catalyzed hydrolysis, restored DBDY fluorescence (selectivity, FIGS. 11-19); assay type: biochemical, bovine; settings: substrate 2.5 μM, protease 0.1 μM, two hours
T8 construct: chymotrypsin and trypsin derived from fetal bovine pancreas; purchased Sigma-Aldrich Chemical Co; host or cells: bovine pancreas
T8 sequence (P00760 24-246): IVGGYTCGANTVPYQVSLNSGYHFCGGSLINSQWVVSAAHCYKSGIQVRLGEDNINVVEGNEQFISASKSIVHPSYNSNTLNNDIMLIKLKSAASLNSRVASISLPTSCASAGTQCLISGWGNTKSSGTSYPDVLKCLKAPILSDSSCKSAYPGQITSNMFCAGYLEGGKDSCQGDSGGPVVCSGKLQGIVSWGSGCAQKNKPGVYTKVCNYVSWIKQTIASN
Experimental: as §1, §2

trypsin [10] = target: T8, trypsin; assay: Degree of hydrolysis by protease (Table 3); assay type: biochemical, bovine; settings: after 2 hours; protease 10 μM; substrate 0.2 mM (G1-G3, L1-L3) or 0.1 mM (G4, L4); n.d. = no hydrolysis was detected; hydrolysate INH
Experimental: as §3

SMILES | hydrolysis by cysteine proteases (increased fluorescence) [1] | hydrolysis by other (non-cysteine) proteases [2] | degree of hydrolysis by Chymotrypsin (chymotrypsin) | degree of hydrolysis by Papain (papain [3]) [%] | degree of hydrolysis by Pepsin (pepsin) [%] | degree of hydrolysis by Thermolysin (thermolysin) [%] | hydrolysis by cathepsin L (cathepsin L [4]) | hydrolysis by cathepsin S (cathepsin S) | Kcat (chymopapain) [s⁻¹] | Km (chymopapain) [µM] | Kcat (papain [5]) [s⁻¹] | Km (papain [5]) [µM] | Kcat (cathepsin L [6]) [s⁻¹] | Km (cathepsin L [6]) [µM] | hydrolysis by cathepsin B (cathepsin B [7]) | Kcat (cathepsin B [8]) [s⁻¹] | Km (cathepsin B [8]) [µM] | hydrolysis by trypsin (increased fluorescence) (trypsin [9]) | degree of hydrolysis by Chymotrypsin (chymotrypsin; listed as DBDY-(Lys-INH)2) | degree of hydrolysis by Trypsin (trypsin [10]) [%]
CC(C)(C)OC(=O)NC(Cc1ccc(O)c(-c2cc(CC(NC(=O)OC(C)(C)C)C(=O)NCC(=O)NNC(=O)c3ccncc3)ccc2O)c1)C(=O)NCC(=O)NNC(=O)c1ccncc1 (centres unmarked) [Substrate G4, DBDY-(Gly-INH)2] | showed sensitivity and selectivity for the cysteine protease; also recorded: selectivity for cysteine proteases | no hydrolysis by other proteases | hardly hydrolyzed | 62.2 ± 2.1 | 2.98 ± 0.07 | 0.74 ± 0.03 | hydrolyzed only by cathepsin B | not hydrolyzed | 0.00567 ± 0.0005 | 4 ± 0.25 | 0.0257 ± 0.005 | 7.72 ± 1.25 | 0.0015 ± 0.00033 | 12.9 ± 3.69 | hydrolyzed only by cathepsin B | 0.0112 ± 0.001 | 2.88 | – | – | –
CC(C)(C)OC(=O)NC(Cc1ccc(O)c(-c2cc(CC(NC(=O)OC(C)(C)C)C(=O)NC(CCCCN)C(=O)NNC(=O)c3ccncc3)ccc2O)c1)C(=O)NC(CCCCN)C(=O)NNC(=O)c1ccncc1 (centres unmarked) [Substrate L4, DBDY-(Lys-INH)2] | hydrolyzed; also recorded: selectivity for cysteine proteases | – | 7.15 ± 0.47 ^c % | 44.9 ± 2.8 | 1.04 ± 0.03 | – | hydrolyzed | not hydrolyzed | 0.0005 ± 0.00017 | 2.2 ± 0.28 | 0.0173 ± 0.00183 | 7.2 ± 0.8 | 0.00333 ± 0.00017 | 1.17 ± 0.09 | hydrolyzed | 0.0362 ± 0.0025 | 2.01 ± 0.05 | hydrolyzed; also recorded: slightly hydrolyzed | hardly hydrolyzed | 46.8 ± 1.7
